Each compound was assayed against LRRK2 (Homo sapiens, UniProt Q5S007) (assay: LRRK2 protein kinase assay ([γ-33P] ATP, peptide substrate), KI values of Table 1). Conditions: LRRK2 affinity values.
Format: biochemical
From the text: All LRRK2 protein kinases were of human origin and were sourced from Invitrogen Corporation (Carlsbad, Calif. 92008 USA) unless otherwise indicated. The active mutant used was recombinant human, catalytic domain (amino acids 970-2527) containing a G2019S mutation, GST-tagged, expressed in insect cells (Invitrogen Cat#PV4881). The wild type used was recombinant human, catalytic domain (amino acids 970-2527) GST-tagged, expressed in insect cells (Invitrogen Cat#PV4873). The kinase dead mutant used was recombinant human, catalytic domain (amino acids 970-2527) containing a D1994A mutation, GST-tagged, expressed in insect cells (Invitrogen Cat#PM4041AE). No special measures were taken to activate any of the kinases.
All assays were carried out at room temperature (˜21° C.) and were linear with respect to time and enzyme concentration under the conditions used. Assays were performed for 180 min in a 96 well format. LRRK2 was present at a concentration of approximately 5 nM. The enzyme was diluted and assayed in 50 mM Tris-HCl pH7.5, 0.1 mM EGTA, 1 mM DTT and 10 mM MgCl2. The concentration of magnesium chloride in the assay was 10 mM. The [γ-33P] ATP (0.4 μCi/well) was used at 134 uM for G2019S mutant and at 57 μM for the wild type kinase in order to be at Km. The peptide substrate in the assay was […] at 100 μM.
The assays were initiated with Mg/ATP and stopped by the addition of 25 μl/well 50% orthophosphoric acid. Reactions were harvested onto Whatman P81 Unifilter Plates (Fisher Scientific. Loughborough, LE115RG, UK. Cat# FDU-105-020U) using a Tomtec harvester. (Tomtec Hamden, Conn. 06514. USA) Plates were counted using a Perkin Elmer Top Count NX7. (Perkin Elmer, Shelton Conn. 06484-4794 USA)
IC50 values of inhibitors were determined after carrying out assays at 10 different concentrations of each compound in duplicate.

Sequence of LRRK2 (Q5S007 whole entry G2019S, form open): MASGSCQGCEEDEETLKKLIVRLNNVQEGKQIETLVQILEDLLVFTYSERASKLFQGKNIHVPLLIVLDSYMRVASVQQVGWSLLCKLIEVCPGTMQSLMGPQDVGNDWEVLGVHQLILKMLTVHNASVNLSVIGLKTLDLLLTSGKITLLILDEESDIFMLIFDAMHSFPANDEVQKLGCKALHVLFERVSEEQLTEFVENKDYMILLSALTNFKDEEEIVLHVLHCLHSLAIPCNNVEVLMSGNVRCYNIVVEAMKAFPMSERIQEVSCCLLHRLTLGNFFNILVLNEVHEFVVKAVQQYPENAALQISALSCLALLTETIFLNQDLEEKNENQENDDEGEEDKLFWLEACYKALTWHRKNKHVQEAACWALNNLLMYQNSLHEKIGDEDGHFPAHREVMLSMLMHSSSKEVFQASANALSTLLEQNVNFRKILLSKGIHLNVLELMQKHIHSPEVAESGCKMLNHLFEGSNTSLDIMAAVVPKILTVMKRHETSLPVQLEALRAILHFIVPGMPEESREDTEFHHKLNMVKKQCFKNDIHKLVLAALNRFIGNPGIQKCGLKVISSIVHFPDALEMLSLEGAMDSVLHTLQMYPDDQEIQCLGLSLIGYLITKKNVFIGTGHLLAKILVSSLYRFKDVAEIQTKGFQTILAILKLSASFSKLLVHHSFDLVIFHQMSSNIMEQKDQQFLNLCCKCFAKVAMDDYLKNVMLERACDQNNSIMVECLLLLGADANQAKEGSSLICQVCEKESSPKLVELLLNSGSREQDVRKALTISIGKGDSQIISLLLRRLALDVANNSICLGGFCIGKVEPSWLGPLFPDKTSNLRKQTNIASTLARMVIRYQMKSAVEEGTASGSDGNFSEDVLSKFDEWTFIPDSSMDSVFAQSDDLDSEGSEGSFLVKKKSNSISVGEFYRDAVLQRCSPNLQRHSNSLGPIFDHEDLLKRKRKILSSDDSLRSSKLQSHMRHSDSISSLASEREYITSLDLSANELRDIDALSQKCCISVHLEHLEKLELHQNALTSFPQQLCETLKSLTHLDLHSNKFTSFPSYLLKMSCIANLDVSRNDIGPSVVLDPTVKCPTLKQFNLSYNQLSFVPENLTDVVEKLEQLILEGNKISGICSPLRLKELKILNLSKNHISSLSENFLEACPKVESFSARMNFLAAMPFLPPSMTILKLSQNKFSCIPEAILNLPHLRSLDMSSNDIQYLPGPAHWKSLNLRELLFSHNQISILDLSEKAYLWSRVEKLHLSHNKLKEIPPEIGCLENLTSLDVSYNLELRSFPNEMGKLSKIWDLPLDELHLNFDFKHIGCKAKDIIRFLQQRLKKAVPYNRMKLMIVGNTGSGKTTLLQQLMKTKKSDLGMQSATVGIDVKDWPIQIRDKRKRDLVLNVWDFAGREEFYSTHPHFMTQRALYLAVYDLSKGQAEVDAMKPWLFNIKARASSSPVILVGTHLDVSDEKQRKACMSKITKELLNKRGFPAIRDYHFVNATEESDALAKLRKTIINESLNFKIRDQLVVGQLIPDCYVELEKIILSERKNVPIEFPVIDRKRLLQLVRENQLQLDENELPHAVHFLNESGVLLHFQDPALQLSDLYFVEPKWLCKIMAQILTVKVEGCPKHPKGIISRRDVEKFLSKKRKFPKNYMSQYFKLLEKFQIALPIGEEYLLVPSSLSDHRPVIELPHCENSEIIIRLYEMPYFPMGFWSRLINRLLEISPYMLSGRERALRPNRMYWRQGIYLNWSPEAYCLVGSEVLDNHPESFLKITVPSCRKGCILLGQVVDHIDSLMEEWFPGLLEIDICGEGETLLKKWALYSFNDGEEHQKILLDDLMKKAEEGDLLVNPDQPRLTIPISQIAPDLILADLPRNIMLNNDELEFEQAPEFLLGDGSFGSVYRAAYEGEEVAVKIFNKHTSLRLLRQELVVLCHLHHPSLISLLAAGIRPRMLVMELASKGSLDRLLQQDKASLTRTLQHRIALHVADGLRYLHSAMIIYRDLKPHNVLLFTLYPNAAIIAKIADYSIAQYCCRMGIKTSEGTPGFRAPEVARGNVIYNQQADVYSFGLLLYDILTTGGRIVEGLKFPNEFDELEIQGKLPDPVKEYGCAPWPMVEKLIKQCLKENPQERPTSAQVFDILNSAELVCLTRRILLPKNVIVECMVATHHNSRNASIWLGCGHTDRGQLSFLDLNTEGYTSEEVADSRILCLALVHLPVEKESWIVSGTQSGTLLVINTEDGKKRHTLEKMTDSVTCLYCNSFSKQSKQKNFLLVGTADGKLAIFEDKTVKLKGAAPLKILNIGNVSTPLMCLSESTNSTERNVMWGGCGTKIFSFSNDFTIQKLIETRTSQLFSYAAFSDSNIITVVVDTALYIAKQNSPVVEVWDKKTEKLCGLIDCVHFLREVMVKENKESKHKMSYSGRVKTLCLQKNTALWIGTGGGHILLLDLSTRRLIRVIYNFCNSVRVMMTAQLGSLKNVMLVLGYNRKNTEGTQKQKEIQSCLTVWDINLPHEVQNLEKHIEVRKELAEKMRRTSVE

SMILES | Ki [nM]
CCc1cc(-c2n[nH]c3ccnc(NC4CCOCC4)c23)nn1C [Compound 1, 3-(5-ethyl-1-methyl-1H-pyrazol-3-yl)-N-(tetrahydro-2H-pyran-4-yl)-1H-pyrazolo[4,3-c]pyridin-4-amine] | 0.5
CC(C)Nc1nccc2[nH]nc(-c3nccc(N4CCOCC4)n3)c12 [Compound 2, N-isopropyl-3-(4-morpholinopyrimidin-2-yl)-1H-pyrazolo[4,3-c]pyridin-4-amine] | 78.5
FC(F)(F)c1ccnc(-c2n[nH]c3ccnc(NC4CCOCC4)c23)c1 [Compound 23, N-(tetrahydro-2H-pyran-4-yl)-3-(4-(trifluoromethyl)pyridin-2-yl)-1H-pyrazolo[4,3-c]pyridin-4-amine] | 0.4
CC(C)Nc1nccc2[nH]nc(-c3cc(C(F)(F)F)ccn3)c12 [Compound 20, N-isopropyl-3-(4-(trifluoromethyl)pyridin-2-yl)-1H-pyrazolo[4,3-c]pyridin-4-amine] | 1.6
FC(F)(F)c1cc(-c2n[nH]c3ccnc(NC4CCOCC4)c23)ncn1 [Compound 22, N-(tetrahydro-2H-pyran-4-yl)-3-(6-(trifluoromethyl)pyrimidin-4-yl)-1H-pyrazolo[4,3-c]pyridin-4-amine] | 2.9
CCNc1nccc2[nH]nc(-c3cn(C)cn3)c12 [Compound 12, N-ethyl-3-(1-methyl-1H-imidazol-4-yl)-1H-pyrazolo[4,3-c]pyridin-4-amine] | 33.7
CCNc1nccc2[nH]nc(-c3cn(C)nn3)c12 [Compound 10, N-ethyl-3-(1-methyl-1H-1,2,3-triazol-4-yl)-1H-pyrazolo[4,3-c]pyridin-4-amine] | 14.5
CCNc1nccc2[nH]nc(-c3cc(C(F)(F)F)ncn3)c12 [Compound 27, N-ethyl-3-(6-(trifluoromethyl)pyrimidin-4-yl)-1H-pyrazolo[4,3-c]pyridin-4-amine] | 31.8
c1cc(-c2n[nH]c3ccnc(NC4CCOCC4)c23)ncn1 [Compound 18, 3-(pyrimidin-4-yl)-N-(tetrahydro-2H-pyran-4-yl)-1H-pyrazolo[4,3-c]pyridin-4-amine] | 6
Cc1cccc(-c2n[nH]c3ccnc(NC4CCOCC4)c23)n1 [Compound 28, 3-(6-methylpyridin-2-yl)-N-(tetrahydro-2H-pyran-4-yl)-1H-pyrazolo[4,3-c]pyridin-4-amine] | 1.8
CCNc1nccc2[nH]nc(-c3ccccn3)c12 [Compound 16, N-ethyl-3-(pyridin-2-yl)-1H-pyrazolo[4,3-c]pyridin-4-amine] | 66.4
CC(C)Nc1nccc2[nH]nc(-c3cc(C#N)ccn3)c12 [Compound 31, 2-(4-(isopropylamino)-1H-pyrazolo[4,3-c]pyridin-3-yl)isonicotinonitrile] | 2.3
CC(C)Nc1nccc2[nH]nc(-n3cc(C(F)(F)F)cn3)c12 [Compound 32, N-isopropyl-3-(4-(trifluoromethyl)-1H-pyrazol-1-yl)-1H-pyrazolo[4,3-c]pyridin-4-amine] | 9.1
CC(C)Nc1nccc2[nH]nc(-c3cc(Cl)ccn3)c12 [Compound 30, 3-(4-chloropyridin-2-yl)-N-isopropyl-1H-pyrazolo[4,3-c]pyridin-4-amine] | 2.5
CCc1cc(-c2n[nH]c3ccnc(NC(C)C)c23)nn1C [Compound 11, 3-(5-ethyl-1-methyl-1H-pyrazol-3-yl)-N-isopropyl-1H-pyrazolo[4,3-c]pyridin-4-amine] | 3.5
CC(C)Nc1nccc2[nH]nc(-c3cn(C(C)C)nn3)c12 [Compound 7, N-isopropyl-3-(1-isopropyl-1H-1,2,3-triazol-4-yl)-1H-pyrazolo[4,3-c]pyridin-4-amine] | 4.4
CC(C)Nc1nccc2[nH]nc(-c3ccccn3)c12 [Compound 13, N-isopropyl-3-(pyridin-2-yl)-1H-pyrazolo[4,3-c]pyridin-4-amine] | 11
CC(C)Nc1nccc2[nH]nc(-c3cc(N4CCOCC4)ncn3)c12 [Compound 4, N-isopropyl-3-(6-morpholinopyrimidin-4-yl)-1H-pyrazolo[4,3-c]pyridin-4-amine] | 1.1
CC(C)n1cnc(-c2n[nH]c3ccnc(NC4CCOCC4)c23)c1 [Compound 6, 3-(1-isopropyl-1H-imidazol-4-yl)-N-(tetrahydro-2H-pyran-4-yl)-1H-pyrazolo[4,3-c]pyridin-4-amine] | 3.3

The next lines start with the values.

Ki [nM] | SMILES
1 | CC(C)Nc1nccc2[nH]nc(-c3cc(-c4ccn(C)n4)ccn3)c12 [Compound 46, N-isopropyl-3-(4-(1-methyl-1H-pyrazol-3-yl)pyridin-2-yl)-1H-pyrazolo[4,3-c]pyridin-4-amine]
39.9 | Cc1cc2[nH]nc(-c3cc(C(F)(F)F)ccn3)c2c(NC2CCOCC2)n1 [Compound 51, 6-methyl-N-(tetrahydro-2H-pyran-4-yl)-3-(4-(trifluoromethyl)pyridin-2-yl)-1H-pyrazolo[4,3-c]pyridin-4-amine]
23.2 | CC(C)S(=O)(=O)c1ccnc(-c2n[nH]c3ccnc(NC4CCOCC4)c23)c1 [Compound 75, 3-(4-(isopropylsulfonyl)pyridin-2-yl)-N-(tetrahydro-2H-pyran-4-yl)-1H-pyrazolo[4,3-c]pyridin-4-amine]
16.6 | Cc1cc(C(=O)N(C)C)cc(-c2n[nH]c3ccnc(NC4CCOCC4)c23)n1 [Compound 64, N,N,2-trimethyl-6-(4-((tetrahydro-2H-pyran-4-yl)amino)-1H-pyrazolo[4,3-c]pyridin-3-yl)isonicotinamide]
14.7 | O=C(c1ccnc(-c2n[nH]c3ccnc(NC4CCOCC4)c23)c1)N1CCC1 [Compound 63, azetidin-1-yl(2-(4-((tetrahydro-2H-pyran-4-yl)amino)-1H-pyrazolo[4,3-c]pyridin-3-yl)pyridin-4-yl)methanone]
3.7 | CC(C)Nc1nccc2[nH]nc(-c3cc(-c4ccnn4C)ccn3)c12 [Compound 36, N-isopropyl-3-(4-(1-methyl-1H-pyrazol-5-yl)pyridin-2-yl)-1H-pyrazolo[4,3-c]pyridin-4-amine]
6.8 | CS(=O)(=O)c1ccnc(-c2n[nH]c3ccnc(NC4CCOCC4)c23)c1 [Compound 69, 3-(4-(methylsulfonyl)pyridin-2-yl)-N-(tetrahydro-2H-pyran-4-yl)-1H-pyrazolo[4,3-c]pyridin-4-amine]
8.8 | FC(F)(F)CNc1nccc2[nH]nc(-c3ccccn3)c12 [Compound 43, 3-(pyridin-2-yl)-N-(2,2,2-trifluoroethyl)-1H-pyrazolo[4,3-c]pyridin-4-amine]
37.2 | CN(C)C(=O)c1ccnc(-c2n[nH]c3ccnc(NC4CCOCC4)c23)c1 [Compound 52, N,N-dimethyl-2-(4-((tetrahydro-2H-pyran-4-yl)amino)-1H-pyrazolo[4,3-c]pyridin-3-yl)isonicotinamide]
1.1 | Cc1c(-c2ccnc(-c3n[nH]c4ccnc(NC(C)C)c34)c2)cnn1C [Compound 44, 3-(4-(1,5-dimethyl-1H-pyrazol-4-yl)pyridin-2-yl)-N-isopropyl-1H-pyrazolo[4,3-c]pyridin-4-amine]
22.6 | FC(F)(F)c1cc(-c2n[nH]c3ccnc(NC4CC5CCC(C4)O5)c23)ncn1 (stereo not drawn) [Compound 77, N-(8-oxabicyclo[3.2.1]octan-3-yl)-3-(6-(trifluoromethyl)pyrimidin-4-yl)-1H-pyrazolo[4,3-c]pyridin-4-amine]
46.9 | CC(C)Nc1nccc2[nH]nc(-c3cc(C(=O)N(C)C)ccn3)c12 [Compound 55, 2-(4-(isopropylamino)-1H-pyrazolo[4,3-c]pyridin-3-yl)-N,N-dimethylisonicotinamide]
6.7 | Cc1nc(-c2n[nH]c3ccnc(NC4CCOCC4)c23)cc(C(F)(F)F)n1 [Compound 71, 3-(2-methyl-6-(trifluoromethyl)pyrimidin-4-yl)-N-(tetrahydro-2H-pyran-4-yl)-1H-pyrazolo[4,3-c]pyridin-4-amine]
3.1 | CC(C)Nc1nccc2[nH]nc(-c3cc(-c4cccnc4F)ccn3)c12 [Compound 37, 3-(2-fluoro-[3,4′-bipyridin]-2′-yl)-N-isopropyl-1H-pyrazolo[4,3-c]pyridin-4-amine]
151 | CC(C)Nc1nccc2[nH]nc(-c3nnc(C4CC4)n3C)c12 [Compound 41, 3-(5-cyclopropyl-4-methyl-4H-1,2,4-triazol-3-yl)-N-isopropyl-1H-pyrazolo[4,3-c]pyridin-4-amine]
3.9 | CC(C)Nc1nccc2[nH]nc(-c3cc(C4CCOCC4)ccn3)c12 [Compound 39, N-isopropyl-3-(4-(tetrahydro-2H-pyran-4-yl)pyridin-2-yl)-1H-pyrazolo[4,3-c]pyridin-4-amine]
0.7 | Cc1cc(C(F)(F)F)cc(-c2n[nH]c3ccnc(NC4CCOCC4)c23)n1 [Compound 70, 3-(6-methyl-4-(trifluoromethyl)pyridin-2-yl)-N-(tetrahydro-2H-pyran-4-yl)-1H-pyrazolo[4,3-c]pyridin-4-amine]

From patent US20140288043A1, “PYRAZOLOPYRIDINE COMPOUNDS” (Genentech, Inc., priority 2013, published 2014)
